Results taken from patent publication US11530384B2, “Use of matrix cells for preparing a micro hair follicle” (L'OREAL, priority 2015, dated 2022).
Entries after “also recorded” stand apart in the source; their conditions may differ.

System: matrix cells
Assay: Culture-amplification of hair matrix cells on a 3T3 feeder layer in the presence of Y27632
Assay type: cell-based, human
Conditions: matrix cells cultured on mitomycin-blocked 3T3 feeder layer, Green-based medium, 10 μM of Y27632
Text: Some authors have proposed culturing these cells in coculture with papilla fibroblasts. The drawback of this method is that the culture obtained is not homogeneous, the matrix cells are contaminated with the dermal fibroblasts from the papilla used in coculture (Reynolds A J, Lawrence […] Human hair follicle germinative epidermal cell culture. J Invest Dermatol. 1993 October; 101(4):634-8). Luo et al. have proposed a technique of microdissection followed by culture of the matrix cells on a plastic support (Luo et al: Methods for culturing hair follicle epithelial matrix cells; Reg. number: H1610; Nov. 5, 1996). However, this microdissection technique results in a very low yield of matrix cells. The applicant has isolated the matrix cells and developed a process for culturing these cells. […] keratinocytes until they reach confluence while forming regular clusters. The cells are amplified according to the technique of Rheinwald and Green (Cell, vol. 6, 331-344,1975) by culturing on a feeder support constituted of fibroblasts in a suitable medium known to those skilled in the art, in the presence of growth factors, in particular amino acids, serum, cholera toxin, insulin, triiodothyronine and pH buffer solution. […]

`C[C@@H](N)[C@H]1CC[C@H](C(=O)Nc2ccncc2)CC1` [Y27632] was tested, and the “differentiation of matrix cells into keratinocytes positive for K85 K35 markers” value was “differentiation thereof into keratinocytes that are positive for the K85 K35 markers; also recorded: differentiate into K85 K35 keratinocytes” and the “proliferation of matrix cells in culture” value was “considerable proliferation; also recorded: proliferate rapidly”.
